In ChEMBL document CHEMBL1126261, “Synthesis and antimuscarinic properties of some N-substituted 5-(aminomethyl)-3,3-diphenyl-2(3H)-furanones” (J Med Chem, 1992):
Values joined by “and” are separate entries in the source; they are usually repeats but may differ in a detail not shown here. Equal entries are not always repeated.

Legend:
[1] = target: Muscarinic acetylcholine receptor (Homo sapiens) (UniProt P20309+P08173+P11229+P08172+P08912)
[2] = target: Muscarinic acetylcholine receptor M3 (Cavia porcellus) (UniProt Q8VH26); conditions: Urinary bladder
Description: The compound was tested for urinary bladder contraction ability in guinea pig.

[3] = target: Muscarinic acetylcholine receptor M3 (Cavia porcellus) (UniProt Q8VH26); conditions: Urine
Description: Urinary bladder contraction ability in guinea pig by intravenous dose

Sequence of Muscarinic acetylcholine receptor M3 (Cavia porcellus) (Q8VH26 1-587): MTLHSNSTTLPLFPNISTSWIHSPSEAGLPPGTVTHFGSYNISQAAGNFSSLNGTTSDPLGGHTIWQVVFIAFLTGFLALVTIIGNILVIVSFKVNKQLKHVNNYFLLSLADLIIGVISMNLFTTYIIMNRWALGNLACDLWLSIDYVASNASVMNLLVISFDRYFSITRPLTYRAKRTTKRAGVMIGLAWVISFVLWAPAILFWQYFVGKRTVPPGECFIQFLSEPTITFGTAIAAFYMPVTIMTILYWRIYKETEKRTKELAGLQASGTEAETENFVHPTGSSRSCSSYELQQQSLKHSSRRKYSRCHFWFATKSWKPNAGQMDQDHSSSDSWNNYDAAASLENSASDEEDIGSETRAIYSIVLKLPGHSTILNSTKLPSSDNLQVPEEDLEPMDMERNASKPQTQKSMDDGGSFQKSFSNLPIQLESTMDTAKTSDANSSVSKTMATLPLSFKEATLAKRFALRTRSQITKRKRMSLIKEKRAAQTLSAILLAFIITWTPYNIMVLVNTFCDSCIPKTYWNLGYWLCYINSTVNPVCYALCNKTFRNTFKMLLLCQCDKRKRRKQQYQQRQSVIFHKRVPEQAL

Row | Structure (SMILES) | ID50 [1] [mg/kg] | ID50 [2] | ID50 [3] [mg/kg]
1 | CC1CCC[n+]2ccn(CC3CC(c4ccccc4)(c4ccccc4)C(=O)O3)c21 (stereo not given) | 0.12 | 0.045 mg/kg | 
2 | CN(C)CC1CC(c2ccccc2)(c2ccccc2)C(=O)O1 (stereo not given) | 61.6 |  | > 10
3 | CCc1nccn1CC1CC(c2ccccc2)(c2ccccc2)C(=O)O1 (stereo not given) |  | 20 mg/kg and 8.5 mg/kg | 
4 | CCCc1nccn1CC1CC(c2ccccc2)(c2ccccc2)C(=O)O1 (stereo not given) | > 100 | 12.5 mg/kg | 
5 | CC(C)(C)c1nccn1CC1CC(c2ccccc2)(c2ccccc2)C(=O)O1 (stereo not given) | 0.74 | 1.3 mg/kg | 
6 | C[n+]1ccn(CC2CC(c3ccccc3)(c3ccccc3)C(=O)O2)c1C(C)(C)C (stereo not given) | 0.29 | 0.28 mg/kg | 
7 | CCc1nccn1C[C@H]1CC(c2ccccc2)(c2ccccc2)C(=O)O1 | 5.3 |  | 1.3
8 | O=C1OC(Cn2cc[n+]3c2CCC3)CC1(c1ccccc1)c1ccccc1 (stereo not given) | 5.5 | 2.1 mg/kg | 
9 | O=C1OC(Cn2cc[n+]3ccccc23)CC1(c1ccccc1)c1ccccc1 (stereo not given) | 8 | 5.2 mg/kg | 
10 | CC(C)c1nccn1CC1CC(c2ccccc2)(c2ccccc2)C(=O)O1 (stereo in doubt; 44) | > 100 | 30 mg/kg | 
11 | Cc1nccn1CC1CC(c2ccccc2)(c2ccccc2)C(=O)O1 (stereo not given) | 29 | 29 mg/kg | 
12 | CC(C)c1n(CC2CC(c3ccccc3)(c3ccccc3)C(=O)O2)cc[n+]1C (stereo not given) | 0.02 |  | 0.03
13 | CN1[C@@H]2CC[C@H]1C[C@@H](OC(=O)C(CO)c1ccccc1)C2 (stereo not given in full) |  | 0.15 mg/kg | 
14 | Cc1ccc[n+]2ccn(CC3CC(c4ccccc4)(c4ccccc4)C(=O)O3)c12 (stereo not given) | 4.42 |  | 1.7
15 | CC(C)c1nccn1C[C@H]1CC(c2ccccc2)(c2ccccc2)C(=O)O1 | 167 | 1.9 mg/kg | 
16 | CCCc1n(CC2CC(c3ccccc3)(c3ccccc3)C(=O)O2)cc[n+]1C (stereo not given) | 0.54 | 0.9 mg/kg | 
17 | CCN(CC)CC1CC(c2ccccc2)(c2ccccc2)C(=O)O1 (stereo not given) | > 100 |  | 16.2
18 | O=C1OC(Cn2cccn2)CC1(c1ccccc1)c1ccccc1 (stereo not given) | 3.8 | > 10 mg/kg | 
19 | CC(C)c1nccn1CC1CC(c2ccccc2)(c2ccccc2)C(=O)O1 (stereo in doubt; 22) | 152 | 3.6 mg/kg | 
20 | CCc1n(CC2CC(c3ccccc3)(c3ccccc3)C(=O)O2)cc[n+]1C (stereo not given) | 0.67 |  | 0.27
21 | C[N+](C)(C)CC1CC(c2ccccc2)(c2ccccc2)C(=O)O1 (stereo not given) | 4.6 |  | 0.64
